Square brackets hold non-standard residues; d marks the D form. Ends that are not written are not given here.
Key:
[1] = tested on: PSX mice (K14-VEGF transgenic psoriasis model); test: Ear thickness / psoriatic lesion development in PSX (homozygous K14-VEGF transgenic) mice; type: in vivo, mouse; settings: intraperitoneal 50 micrograms twice weekly; for mean ear thickness / psoriatic skin lesions: older PSX mice with fully developed psoriatic lesions, 8 weeks, vs untreated control
Source text: This K14-VEGF mouse was backcrossed to homozygosity for the transgene(s), generating a mouse model that develops psoriasiform lesions on the ears spontaneously and after trauma. These are referred to as PSX mice. […] FIGS. 3A-D illustrate the PSX transgenic mouse model used in screening psoriasis treatments in accordance with the present invention. […] FIGS. 3C and 3D show pathology of the mouse model.
The NF-κB inhibitor used for the treatments in this example was the fusion protein drqikiwfqnrrmkwkkTALDWSWLQTE (SEQ ID NO: 122), where lower case letters indicate D-amino acid residues and upper case letters indicate L-amino acid residues. This inhibitor includes a translocation domain of Antennapedia and an Nemo Binding Domain (NBD) peptide.
The peptide was formulated and administered as an intraperitoneal injection of 50 micrograms to either PSX mice after they had fully developed psoriatic skin lesions (FIG. 7) or prior to the development of psoriatic plaques when the ears were still uninvolved (FIG. 8). Assessment of the development of psoriatic lesions was measured by the thickness of ear tissue.

A20 = test: Western blot of A20 in skin of WT and PSX mice with and without TPA; type: in vivo, mouse; settings: topical TPA; wild-type and old (24-week) PSX mice compared to young (4-week) PSX mice
[2] = Topical delivery of FITC-labeled NBD peptide into skin; type: in vivo
Source text: To assess the ability to deliver the NBD peptide of SEQ ID NO: 122 topically, the peptide was conjugated to the fluorophore FITC, and the labeled peptide prepared in two different formulations. The first formulation consisted of the labeled peptide dissolved in vaseline ointment, and the second formulation consisted of the labeled peptide dissolved in DMSO.

drqikiwfqnrrmkwkkTALDWSWLQTE ([dD][dR][dQ][dI][dK][dI][dW][dF][dQ][dN][dR][dR][dM][dK][dW][dK][dK]TALDWSWLQTE) [SEQ ID NO: 122]
mean ear thickness / psoriatic skin lesions ([1]; listed as NF-κB inhibitor): no change
mean ear thickness / psoriatic skin lesions ([1]; listed as peptide): no effect
thickening of the ear and development of phenotypic lesions of psoriasis ([1]; young PSX mice treated prior to development of psoriatic plaques, vs vehicle (DMSO)): prevented the thickening of the ear

CCCCCCCCCCCCCC(=O)O[C@@H]1[C@@H](C)[C@@]2(O)[C@@H](C=C(CO)C[C@]3(O)C(=O)C(C)=C[C@@H]23)[C@@H]2C(C)(C)[C@]12OC(C)=O [TPA, 12-O-tetradecanoyl phorbol-13-acetate]
A20 protein induction (A20): robust induction

FITC-conjugated NBD peptide of SEQ ID NO: 122: NBD peptide of SEQ ID NO: 122 conjugated to the fluorophore FITC, in vaseline ointment or DMSO ([dD][dR][dQ][dI][dK][dI][dW][dF][dQ][dN][dR][dR][dM][dK][dW][dK][dK]TALDWSWLQTE; also: FITC conjugate, site not given here)
peptide localisation in skin after topical administration ([2]; peptide in DMSO): uptake is prevalent among the cells in both the epidermis and dermis
peptide localisation in skin after topical administration ([2]; peptide in vaseline ointment): limited to the stratum corneum

— patent US20140296154A1, “METHOD OF PREVENTING DEVELOPMENT OF PSORIATIC LESIONS” (YALE UNIVERSITY, priority 2011, published 2014)
